In the assay the target is T1, rat metabotropic glutamate receptor 5 (rmGluR5) (Rattus norvegicus, UniProt P31424).
T1 construct: expressed in transfected cells
Kind of assay: Calcium mobilization (FLIPR) assay for negative allosteric modulation, EC80 glutamate, rmGluR5 in HEK 293. The conditions noted are these: HEK293; rmGluR5, inhibition of EC80 glutamate response; read-out: FLIPR maximum inhibition. The class given is cell-based. Here is the method: The cDNA for rat metabotropic glutamate receptor 5 (rmGluR5) and the cDNA for human metabotropic glutamate receptor 5 (hmGluR5) were generous gifts from S. Nakanishi (Kyoto University, Kyoto, Japan). The rmGluR5 or hmGluR5 was stably expressed in a HEK 293 cell line and grown in Dulbecco's Modified Eagle Medium (DMEM) (Invitrogen, Carlsbad, Calif.) with supplements (10% bovine calf serum, 4 mM glutamine, 100 units/mL penicillin, 100 μg/mL streptomycin and 0.75 mM G1418) at 37° C., 5% CO2. Twenty-four hours prior to assay, cells were seeded into 384-well black wall microtiter plates coated with poly-D-lysine. Just prior to assay, media was aspirated and cells dye-loaded (25 μL/well) with 3 μM Fluo-4/0.01% pluronic acid in assay buffer (Hank's Balanced Saline Solution (HBSS)): 150 mM NaCl, 5 mM KCl, 1 mM CaCl2, 1 mM MgCl2, plus 20 mM N-2-Hydroxyethylpiperazine-N′-2-ethanesulfonic acid (HEPES), pH 7.4, 0.1% bovine serum albumin (BSA) and 2.5 mM probenicid) for 1 hour in 5% CO2 at 37° C. After excess dye was discarded, cells were washed in assay buffer and layered with a final volume equal to 30 μL/well. Basal fluorescence is monitored in a fluorometric imaging plate reader (FLIPR) (Molecular Devices, Sunnyvale, Calif.) with an excitation wavelength of 488 nm and an emission range of 500 to 560 nm. Laser excitation energy was adjusted so that basal fluorescence readings were approximately 10,000 relative fluorescent units. Cells were stimulated with an EC20 or an EC80 concentration of glutamate in the presence of a compound to be tested, both diluted in assay buffer, and relative fluorescent units were measured at defined intervals (exposure=0.6 sec) over a 3 min period at room temperature. Basal readings derived from negative controls were subtracted from all samples. Maximum change in fluorescence was calculated for each well. Concentration-response curves derived from the maximum change in fluorescence were analyzed by nonlinear regression (Hill equation). A negative modulator can be identified from these concentration-response curves if a compound produces a concentration dependent inhibition of the EC80 glutamate response.
On the technique in general: A change in cytosolic calcium serves as a functional read-out for many receptors and channels.

Each structure is given as a SMILES string.

T1 sequence (P31424 21-1203): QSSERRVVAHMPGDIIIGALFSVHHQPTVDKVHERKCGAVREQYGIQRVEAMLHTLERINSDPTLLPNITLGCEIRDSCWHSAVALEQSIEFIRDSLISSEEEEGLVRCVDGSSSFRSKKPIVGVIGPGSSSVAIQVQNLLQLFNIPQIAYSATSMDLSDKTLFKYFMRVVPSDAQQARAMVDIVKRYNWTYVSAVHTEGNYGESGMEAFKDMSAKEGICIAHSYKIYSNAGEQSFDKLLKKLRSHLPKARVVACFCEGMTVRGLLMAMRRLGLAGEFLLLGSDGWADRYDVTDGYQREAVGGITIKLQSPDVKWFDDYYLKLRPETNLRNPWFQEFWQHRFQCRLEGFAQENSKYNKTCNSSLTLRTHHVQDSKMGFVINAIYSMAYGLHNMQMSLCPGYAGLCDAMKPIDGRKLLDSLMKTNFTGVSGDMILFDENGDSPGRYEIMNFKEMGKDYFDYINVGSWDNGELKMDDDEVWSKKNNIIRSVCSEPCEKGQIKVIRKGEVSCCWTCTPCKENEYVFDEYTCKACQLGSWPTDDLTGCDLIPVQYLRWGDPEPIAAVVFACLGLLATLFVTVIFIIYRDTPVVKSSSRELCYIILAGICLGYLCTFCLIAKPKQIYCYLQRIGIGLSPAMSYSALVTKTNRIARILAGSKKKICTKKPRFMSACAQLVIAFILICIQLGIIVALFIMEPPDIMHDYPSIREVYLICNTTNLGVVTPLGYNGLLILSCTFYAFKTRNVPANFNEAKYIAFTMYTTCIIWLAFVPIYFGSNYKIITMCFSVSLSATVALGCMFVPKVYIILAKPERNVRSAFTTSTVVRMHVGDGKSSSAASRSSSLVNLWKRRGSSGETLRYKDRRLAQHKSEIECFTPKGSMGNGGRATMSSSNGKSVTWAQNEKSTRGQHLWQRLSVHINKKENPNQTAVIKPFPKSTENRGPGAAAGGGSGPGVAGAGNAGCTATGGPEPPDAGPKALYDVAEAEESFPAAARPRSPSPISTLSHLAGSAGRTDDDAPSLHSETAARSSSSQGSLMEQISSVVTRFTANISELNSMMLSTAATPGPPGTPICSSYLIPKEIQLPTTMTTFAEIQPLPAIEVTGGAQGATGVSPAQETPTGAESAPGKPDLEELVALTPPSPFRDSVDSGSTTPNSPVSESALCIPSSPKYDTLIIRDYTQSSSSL

As to `Cc1cncc(C(=O)N[C@H]2CCC[C@]3(CCN(c4cccc(C#N)c4)C3=O)C2)n1` (relative stereo) [Example 11, cis-6-Methyl-pyrazine-2-carboxylic acid [2-(3-cyano-phenyl)-1-oxo-2-aza-spiro [4.5]dec-7-yl]-amide], the Emax was in the range of 81 to 99%.
For `Cc1cncc(C(=O)N[C@H]2CCC[C@]3(CCN(c4cccc(Cl)c4)C3=O)C2)n1` (relative stereo) [Example 12, cis-6-Methyl-pyrazine-2-carboxylic acid [2-(3-chloro-phenyl)-1-oxo-2-aza-spiro [4.5]dec-7-yl]-amide], the Emax was in the range of 81 to 99%.
As for `O=C(N[C@H]1CCC[C@]2(CCN(c3cccc(Cl)c3)C2=O)C1)c1cnccn1` (relative stereo) [Example 13, cis-Pyrazine-2-carboxylic acid [2-(3-chloro-phenyl)-1-oxo-2-aza-spiro[4.5]dec-7-yl]-amide], the Emax is 81 to 99%.
Turning to `Cn1ccc(C(=O)N[C@H]2CCC[C@]3(CCN(c4cccc(Cl)c4)C3=O)C2)n1` (relative stereo) [Example 14, cis-1-Methyl-1H-pyrazole-3-carboxylic acid [2-(3-chloro-phenyl)-1-oxo-2-aza-spiro[4.5]dec-7-yl]-amide], the Emax was 81 to 99%.
On to `N#Cc1cccc(N2CC[C@]3(CCC[C@H](NC(=O)c4cccc(F)c4)C3)C2=O)c1` (relative stereo) [Example 15, cis-N-[2-(3-Cyano-phenyl)-1-oxo-2-aza-spiro[4.5]dec-7-yl]-3-fluoro-benzamide], for which the Emax lay in the range of 81 to 99%.
`N#Cc1cccc(N2CC[C@]3(CCC[C@H](NC(=O)c4cccc(Cl)c4)C3)C2=O)c1` (relative stereo) [Example 16, cis-N-[2-(3-Cyano-phenyl)-1-oxo-2-aza-spiro[4.5]dec-7-yl]-3-chloro-benzamide]: the Emax fell in the range of 81 to 99%.
As for `Cc1cccc(C(=O)N[C@H]2CCC[C@]3(CCN(c4cccc(F)c4)C3=O)C2)n1` (relative stereo) [Example 17, cis-6-Methyl-pyridine-2-carboxylic acid [2-(3-fluoro-phenyl)-1-oxo-2-aza-spiro[4.5]dec-7-yl]-amide], the Emax was in the range of 81 to 99%.
`Cc1cccc(C(=O)N[C@H]2CCC[C@@]3(CCN(c4cccc(F)c4)C3=O)C2)n1` (relative stereo) [Example 18, trans-6-Methyl-pyridine-2-carboxylic acid [2-(3-fluoro-phenyl)-1-oxo-2-aza-spiro [4.5]dec-7-yl]-amide]: the Emax was in the range of 81 to 99%.
Under `O=C(N[C@H]1CCC[C@@]2(CCN(c3cccc(F)c3)C2=O)C1)c1ccccn1` (relative stereo) [Example 20, trans-Pyridine-2-carboxylic acid [2-(3-fluoro-phenyl)-1-oxo-2-aza-spiro [4.5]dec-7-yl]-amide] stands 81 to 99%.
Under `Cc1cncc(C(=O)N[C@H]2CCC[C@]3(CCN(c4cccc(F)c4)C3=O)C2)n1` (relative stereo) [Example 21, cis-6-Methyl-pyrazine-2-carboxylic acid [2-(3-fluoro-phenyl)-1-oxo-2-aza-spiro [4.5]dec-7-yl]-amide] stands 81 to 99%; under `Cc1cncc(C(=O)N[C@H]2CCC[C@@]3(CCN(c4cccc(F)c4)C3=O)C2)n1` (relative stereo) [Example 22, trans-6-Methyl-pyrazine-2-carboxylic acid[2-(3-fluoro-phenyl)-1-oxo-2-aza-spiro [4.5]dec-7-yl]-amide], 81 to 99%.
On to `Cc1cccc(N2CC[C@@]3(CCC[C@H](NC(=O)c4cccc(F)c4)C3)C2=O)n1` (relative stereo) [Example 24, trans-3-Fluoro-N-[2-(6-methyl-pyridin-2-yl)-1-oxo-2-aza-spiro[4.5]dec-7-yl]-benzamide], for which the Emax lay in the range of 81 to 99%.
Next, `O=C(N[C@H]1CCC[C@]2(CCN(c3ccccn3)C2=O)C1)c1cccc(F)c1` (relative stereo) [Example 26, 3-Fluoro-N-(1-oxo-2-pyridin-2-yl-2-aza-spiro[4.5]dec-7-yl)-benzamide]: 81 to 99%.

Source of the values: patent publication US9359297B2, “Spirolactam derivatives and uses of same” (H. Lundbeck A/S, priority 2009, dated 2016).
